Test results from ChEMBL document CHEMBL5252588, “Palladium-Catalyzed Synthesis, Acetylcholinesterase Inhibition, and Neuroprotective Activities of N-Aryl Galantamine Analogues” (J Nat Prod, 2023).
Activity calls are given as the source filed them. The calls are words filed in the database; no cut-off is given here.

Legend:
[1] = target: Acetylcholinesterase (Electrophorus electricus) (UniProt O42275); test: Inhibition of electric eel AChE using acetylthiocholine iodide as substrate at 50 uM preincubated with compounds for 20 mins followed by substrate addition and measured after 20 mins by Ellman's method relative to control; settings: time 40.0 min
[2] = test system: SH-SY5Y; test: Neuroprotective activity against H2O2-induced injury in human SH-SY5Y cells assessed as […] in cell viability at 50 uM preincubated with compound for 24 hrs followed by H2O2-addition and measured after 4 hrs by MTT assay relative to control; type: functional; settings: time 28 hrs
[3] = test system: SH-SY5Y; test: Neuroprotective activity against H2O2-induced injury in human SH-SY5Y cells assessed as inhibition of H2O2-induced apoptosis at 50 uM preincubated with compound for 24 hrs followed by H2O2-addition and measured after 4 hrs by TUNEL staining based analysis; type: functional, cell-based; settings: time 28.0 hrs
[4] = test system: SH-SY5Y; test: Neuroprotective activity against H2O2-induced injury in human SH-SY5Y cells assessed as decrease in caspase-3 protein expression at 50 uM preincubated with compound for 24 hrs followed by H2O2-addition and measured after 4 hrs by immunoblot analysis; type: functional, cell-based; settings: time 28.0 hrs
[5] = test system: SH-SY5Y; test: Neuroprotective activity against H2O2-induced injury in human SH-SY5Y cells assessed as increase in Bcl-2 protein expression at 50 uM preincubated with compound for 24 hrs followed by H2O2-addition and measured after 4 hrs by immunoblot analysis; type: functional, cell-based; settings: time 28.0 hrs
[6] = test system: SH-SY5Y; test: Neuroprotective activity against H2O2-induced injury in human SH-SY5Y cells assessed as decrease in cleaved caspase-3 at 50 uM preincubated with compound for 24 hrs followed by H2O2-addition and measured after 4 hrs by immunoblot analysis; type: functional, cell-based; settings: time 28.0 hrs
[7] = target: Acetylcholinesterase (Electrophorus electricus, UniProt O42275); test: Inhibition of electric eel AChE using acetylthiocholine iodide as substrate preincubated with compounds for 20 mins followed by substrate addition and measured after 20 mins by Ellman's method relative to control
[8] = target: Cholinesterase (Equus caballus) (UniProt P81908); test: Inhibition of equine serum BChE using butyrylthiocholine iodide as substrate at 50 to 100 uM preincubated for 20 mins followed by substrate addition and measured after 20 mins by Ellman's method; settings: dose 50-100 µM, time 40.0 min
[9] = target: Acetylcholinesterase (Electrophorus electricus) (UniProt O42275); test: Inhibition of electric eel AChE using acetylthiocholine iodide as substrate at 50 to 100 uM preincubated with compounds for 20 mins followed by substrate addition and measured after 20 mins by Ellman's method relative to control; settings: dose 50-100 µM, time 40.0 min
[10] = test system: SH-SY5Y; test: Cytotoxicity against human SH-SY5Y cells assessed as reduction in cell viability; type: toxicity, cell-based

Chain of Acetylcholinesterase (Electrophorus electricus) (O42275 24-633 limits assumed): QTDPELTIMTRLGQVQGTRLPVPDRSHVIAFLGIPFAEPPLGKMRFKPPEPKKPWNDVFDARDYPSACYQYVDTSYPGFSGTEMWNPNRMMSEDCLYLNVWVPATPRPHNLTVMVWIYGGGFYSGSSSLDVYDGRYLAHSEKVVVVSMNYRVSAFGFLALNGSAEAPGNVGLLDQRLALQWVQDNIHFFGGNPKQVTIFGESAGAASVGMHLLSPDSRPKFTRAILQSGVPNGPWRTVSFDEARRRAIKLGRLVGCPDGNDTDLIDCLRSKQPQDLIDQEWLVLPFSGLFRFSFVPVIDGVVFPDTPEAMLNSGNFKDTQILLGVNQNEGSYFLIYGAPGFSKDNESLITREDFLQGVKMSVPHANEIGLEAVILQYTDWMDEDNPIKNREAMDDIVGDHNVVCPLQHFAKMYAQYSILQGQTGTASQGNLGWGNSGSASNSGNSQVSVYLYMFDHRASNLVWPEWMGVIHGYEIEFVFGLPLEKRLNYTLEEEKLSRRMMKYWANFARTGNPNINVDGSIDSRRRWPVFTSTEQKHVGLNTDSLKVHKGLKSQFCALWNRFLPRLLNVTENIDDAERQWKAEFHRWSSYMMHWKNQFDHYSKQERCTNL
Chain of Acetylcholinesterase (O42275 whole entry): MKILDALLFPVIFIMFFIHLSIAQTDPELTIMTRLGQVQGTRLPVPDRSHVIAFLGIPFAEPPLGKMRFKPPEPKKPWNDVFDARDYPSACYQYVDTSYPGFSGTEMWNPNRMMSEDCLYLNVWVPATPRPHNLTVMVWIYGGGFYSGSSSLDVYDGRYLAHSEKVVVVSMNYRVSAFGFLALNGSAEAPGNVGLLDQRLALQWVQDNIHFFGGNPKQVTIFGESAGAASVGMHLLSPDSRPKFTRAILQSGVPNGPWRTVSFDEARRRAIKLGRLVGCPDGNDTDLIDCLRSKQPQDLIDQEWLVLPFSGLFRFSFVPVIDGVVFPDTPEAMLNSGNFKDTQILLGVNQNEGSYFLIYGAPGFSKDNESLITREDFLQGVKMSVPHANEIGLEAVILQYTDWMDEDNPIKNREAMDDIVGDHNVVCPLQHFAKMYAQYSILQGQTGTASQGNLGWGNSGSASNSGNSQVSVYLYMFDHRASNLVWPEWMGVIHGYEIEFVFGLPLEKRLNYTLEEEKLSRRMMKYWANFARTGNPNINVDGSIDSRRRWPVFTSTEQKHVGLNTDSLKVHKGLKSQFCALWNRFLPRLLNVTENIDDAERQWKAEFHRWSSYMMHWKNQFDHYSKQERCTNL
Chain of Cholinesterase (Equus caballus) (P81908 whole entry): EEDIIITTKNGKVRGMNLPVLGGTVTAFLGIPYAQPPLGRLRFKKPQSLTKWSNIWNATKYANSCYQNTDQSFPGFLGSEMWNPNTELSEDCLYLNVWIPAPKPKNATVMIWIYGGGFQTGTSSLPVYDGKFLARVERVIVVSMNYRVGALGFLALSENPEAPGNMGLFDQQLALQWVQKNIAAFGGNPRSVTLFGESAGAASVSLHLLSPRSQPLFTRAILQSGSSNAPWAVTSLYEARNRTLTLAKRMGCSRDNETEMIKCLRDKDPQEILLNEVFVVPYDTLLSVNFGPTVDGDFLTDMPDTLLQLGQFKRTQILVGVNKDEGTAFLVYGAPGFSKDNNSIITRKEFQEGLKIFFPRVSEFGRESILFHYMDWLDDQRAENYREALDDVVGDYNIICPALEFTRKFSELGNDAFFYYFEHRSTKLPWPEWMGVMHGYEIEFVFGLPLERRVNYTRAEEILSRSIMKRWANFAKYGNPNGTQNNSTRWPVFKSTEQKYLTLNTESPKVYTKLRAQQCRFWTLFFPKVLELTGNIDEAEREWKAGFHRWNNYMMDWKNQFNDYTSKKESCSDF

COc1ccnc(N2CC[C@@]34C=C[C@H](O)C[C@@H]3Oc3c(OC)ccc(c34)C2)c1
inhibition [1]: > 50% | Activity [2]: 70% | Activity [3]: Active | Activity [4]: inactive | Activity [5]: Active | Activity [6]: Active | IC50 [7]: 0.19 µM | inhibition [8]: inactive

COc1ccc2c3c1O[C@H]1C[C@@H](O)C=C[C@@]31CCN(C)C2 [GALANTAMINE]
Activity [2]: 44%

COc1ccc2c3c1O[C@H]1C[C@@H](O)C=C[C@@]31CCN(c1cccc(C)n1)C2
inhibition [1]: > 50% | Activity [2]: 55% | IC50 [7]: 17 µM | inhibition [8]: inactive

COc1ccc2c3c1O[C@H]1C[C@@H](O)C=C[C@@]31CCN(c1ccc(-c3ccccn3)cc1)C2
Activity [2]: 38% | inhibition [9]: < 50% | Activity [10]: Toxic | inhibition [8]: inactive

COc1ccc2c3c1O[C@H]1C[C@@H](O)C=C[C@@]31CCN(c1ccccn1)C2
inhibition [1]: > 50% | Activity [2]: 59% | IC50 [7]: 3.6 µM | inhibition [8]: inactive

CCCCc1ccc(N2CC[C@@]34C=C[C@H](O)C[C@@H]3Oc3c(OC)ccc(c34)C2)cc1
inhibition [9]: < 50% | Activity [10]: Toxic | inhibition [8]: inactive

COc1ccc2c3c1O[C@H]1C[C@@H](O)C=C[C@@]31CCN(c1ccc(C(C)(C)C)cc1)C2
inhibition [9]: < 50% | Activity [10]: Toxic | inhibition [8]: inactive

COc1ccc2c3c1O[C@H]1C[C@@H](O)C=C[C@@]31CCN(c1ccc3c(c1)OCO3)C2
Activity [2]: 39% | inhibition [9]: < 50% | inhibition [8]: inactive

COc1ccc(N2CC[C@@]34C=C[C@H](O)C[C@@H]3Oc3c(OC)ccc(c34)C2)cc1
Activity [2]: 37% | inhibition [9]: < 50% | inhibition [8]: inactive

COc1cccnc1N1CC[C@@]23C=C[C@H](O)C[C@@H]2Oc2c(OC)ccc(c23)C1
inhibition [1]: > 50% | Activity [2]: 40% | IC50 [7]: 27 µM | inhibition [8]: inactive

COc1cccc(N2CC[C@@]34C=C[C@H](O)C[C@@H]3Oc3c(OC)ccc(c34)C2)c1
Activity [2]: 40% | inhibition [9]: < 50% | inhibition [8]: inactive

COc1ccc2c3c1O[C@H]1C[C@@H](O)C=C[C@@]31CCN(c1ccc(OC(C)C)nc1)C2
Activity [2]: 42% | inhibition [8]: inactive

COc1ccc2c3c1O[C@H]1C[C@@H](O)C=C[C@@]31CCN(c1ccc(C(F)(F)F)nc1)C2
Activity [2]: 63% | inhibition [8]: inactive

COc1ccc2c3c1O[C@H]1C[C@@H](O)C=C[C@@]31CCN(c1ccc(F)cc1)C2
Activity [2]: 39% | inhibition [9]: < 50% | inhibition [8]: inactive

CCc1ccc(-c2ccc(N3CC[C@@]45C=C[C@H](O)C[C@@H]4Oc4c(OC)ccc(c45)C3)cc2)cc1
inhibition [9]: < 50% | Activity [10]: Toxic | inhibition [8]: inactive

COc1ccc2c3c1O[C@H]1C[C@@H](O)C=C[C@@]31CCN(c1ccc3ncccc3c1)C2
Activity [2]: 56% | inhibition [9]: < 50% | inhibition [8]: inactive

COc1ccc2c3c1O[C@H]1C[C@@H](O)C=C[C@@]31CCN(c1cc(C(F)(F)F)cc(C(F)(F)F)c1)C2
inhibition [9]: < 50% | Activity [10]: Toxic | inhibition [8]: inactive

COc1ccc2c3c1O[C@H]1C[C@@H](O)C=C[C@@]31CCN(c1ncccc1C)C2
inhibition [1]: > 50% | Activity [2]: 37% | IC50 [7]: 1.7 µM | inhibition [8]: inactive

COc1ccc2c3c1O[C@H]1C[C@@H](O)C=C[C@@]31CCN(c1ncccc1F)C2
Activity [10]: Toxic | inhibition [8]: inactive

COc1ccc2c3c1O[C@H]1C[C@@H](O)C=C[C@@]31CCN(c1cccc(C(F)(F)F)c1)C2
Activity [2]: 53% | inhibition [9]: < 50% | inhibition [8]: inactive

CCOc1ccc(N2CC[C@@]34C=C[C@H](O)C[C@@H]3Oc3c(OC)ccc(c34)C2)nc1
Activity [2]: 41% | inhibition [8]: inactive

COc1ccc2c3c1O[C@H]1C[C@@H](O)C=C[C@@]31CCN(c1cc(C)ccn1)C2
Activity [2]: 41% | inhibition [8]: inactive

COc1ccc2c3c1O[C@H]1C[C@@H](O)C=C[C@@]31CCN(c1ncccn1)C2
Activity [2]: 60% | inhibition [8]: inactive

COc1ccc2c3c1O[C@H]1C[C@@H](O)C=C[C@@]31CCN(c1ccc(C)cc1)C2
inhibition [9]: < 50% | Activity [10]: Toxic | inhibition [8]: inactive

COc1cccc(N2CC[C@@]34C=C[C@H](O)C[C@@H]3Oc3c(OC)ccc(c34)C2)n1
Activity [2]: 66% | inhibition [8]: inactive
